Here are results for five compounds from patent US9045426B2, “Method for producing 1,2-dihydropyridine-2-one compound” (EISAI R&D MANAGEMENT CO., LTD., priority 2004, dated 2015).

Data set [1] deals with AMPA (alpha -amino-3-hydroxy-5-methyl-4-isoxazolepropionic acid) receptor. Conditions: cited from earlier work.
Data set [2] in a line: Physical stability in mixing operation in the presence of water or water-ethanol (1:1) mixed solution. The data set is classed as physicochemical. Conditions: room temperature, then dried at about 60° C. As to the method:
Physical Stability in Mixing-Operation in the Presence of Water or Water-Ethanol (1:1) Mixed Solution
About 150 mg of respective crystals are placed in an agate mortar, and the mixing operation is carried out at room temperature for a few minutes while the dropwise addition of water (or water-ethanol (1:1) mixed solution) continues.
Subsequently, respective crystals are dried at about 60° C. for 2 to 3 hours.

Data set [3] is described as follows: Influence of change in temperature on Hydrate crystal (powder X-ray diffraction). The class given is physicochemical. Conditions: 30 to 100 to 30° C.; returns to Hydrate when the temperature was lowered. Here is the method: (§1) Influence of Change in Temperature and Humidity on Hydrate Crystal
(§2) Rigaku X-ray DTA system: RINT-2000 manufactured by Rigaku Corporation
(§3) Crystals obtained in Example 5 (Hydrate crystal) were ground in a mortar and then sampled on a 13-mm diameter glass plate. Measurement was carried out under the conditions below.
Scanning range (2θ): 5 to 40°
Measurement temperature was changed as follows in turn and powder X-ray diffraction patterns were measured at the respective temperatures in sequence: 30→40→50→60→70→80→100→70→60→50→40 and 30° C.

A short description of data set [4]: Influence of change in humidity on Hydrate crystal (powder X-ray diffraction). The class given is physicochemical. Conditions: 4 to 90 to 5% RH. Here is the method: as §1, §2, §3
Measurement humidity was changed as follows in turn and powder X-ray diffraction patterns were measured at the respective humidities in sequence: […]

A short description of data set [5]: Lower explosion concentration limit (blown-up type dust explosion test). The following applies: 24° C., humidity 49%, ignition discharge energy 10 J. The data set is classed as physicochemical. The text has this:
(§4) Minimum Ignition Energy and Lower Explosion Concentration Limit
(§5) An appropriate amount of Hydrate crystal corresponding to a concentration was uniformly put on sample dish of blown-up type dust explosion test apparatus. 50 kPa of air was compressed in a 1.3 L pressure tank, and the air was introduced into a glass cylinder by opening of a solenoid operated valve to form dust clouds. A discharge electrode was supplied with energy after 0.1 seconds after the opening of the solenoid operated valve. The criterion of ignition is an arrival of flame at an ignition mark set 100 mm above the discharge electrode.
(2) Measurement Conditions for Lower Explosion Concentration Limit
(§6) Temperature of the measurement room: 24° C.
(§7) Popping pressure of compressed air: 50 kPa
(§8) Ignition start time: 0.1 sec
Repetition of ignition test: 5 times
Ignition discharge energy: 10 J
(§9) Blown-up type dust explosion test apparatus (Environmental Technology Co., Ltd. DES -10)

Data set [6] in a line: Minimum ignition energy (blown-up type dust explosion test). The class given is physicochemical. Conditions: 24° C., humidity 49%, dust concentration 1250 g/m^3.
Source text: as §4, §5
(3) Measurement Conditions for Minimum Ignition Energy
as §6, §7, §8
Repetition of ignition test: 10 times
as §9

A short description of data set [7]: Chargeability (static potential of the powder after stirring). The class given is physicochemical. Conditions: about 1 g stirred for 30 minutes with fluoroplastic-coated stirring bar. Here is the method:
About 1 g of respective compounds is weighed into a weighing bottle (diameter of 35 mm). A stifling bar [fluoroplastic (tetrafluoroethylene resin) coating; 20 mm] is placed in the bottle and after the lid is in place, the powders are stirred for 30 minutes. The lid is opened at the same time that stirring is stopped; and the static potential of the powder is measured using a static potential measuring instrument.
STATIRON-DZ3 manufactured by Shishido Electrostatic, Ltd.

Regarding `N#Cc1ccccc1-c1cc(-c2ccccn2)cn(-c2ccccc2)c1=O` [Compound (A), 3-(2-cyanophenyl)-5-(2-pyridyl)-1-phenyl-1,2-dihydropyridin-2-one], in data set [1], the “antagonistic action against AMPA receptor” value is “significant antagonistic action”.
In the case of `N#Cc1ccccc1-c1cc(-c2ccccn2)cn(-c2ccccc2)c1=O.O` [Example 5, 3-(2-cyanophenyl)-5-(2-pyridyl)-1-phenyl-1,2-dihydropyridin-2-one hydrate], in data set [2], the “change in crystal form during mixing operation (powder X-ray diffraction)” value (“change … (powder X-ray diffraction)” below) is “no change in crystal form”. Moreover, the “temperature at which Hydrate crystal transforms to Anhydrous crystal form III” value in data set [3] was no less than 60 °C. The “humidity under which crystals stay Hydrate crystal” value in data set [4] is on record as no less than 10 % RH. Besides, in data set [4] (reversible), the “humidity under which Hydrate crystal changes to Anhydrous crystal form III” value is on record as no more than 10 % RH. Further, in data set [5], the “Lower Explosion Concentration Limit” value was 160-170 g/m^3. The “Minimum Ignition Energy” value in data set [6] was 50 to 100 mJ. For the same compound, in data set [7], the “static potential of the powder (chargeability)” value was 0 V.
On to `N#Cc1ccccc1-c1cc(-c2ccccn2)cn(-c2ccccc2)c1=O` [Reference Example 1, 3-(2-cyanophenyl)-5-(2-pyridyl)-1-phenyl-1,2-dihydropyridin-2-one, reference compound], for which the “change … (powder X-ray diffraction)” value in data set [2] is listed as “underwent a change in crystal form”. In data set [7], the “static potential of the powder (chargeability)” value is 70-100 V.
`N#Cc1ccccc1-c1cc(-c2ccccn2)cn(-c2ccccc2)c1=O` [Example 6, 3-(2-cyanophenyl)-5-(2-pyridyl)-1-phenyl-1,2-dihydropyridin-2-one]: the “change … (powder X-ray diffraction)” value in data set [2] is reported as “no change in crystal form”.
`N#Cc1ccccc1-c1cc(-c2ccccn2)cn(-c2ccccc2)c1=O` [Example 7, 3-(2-cyanophenyl)-5-(2-pyridyl)-1-phenyl-1,2-dihydropyridin-2-one]: in data set [2], the “change … (powder X-ray diffraction)” value was “no change in crystal form”.
